# Laboratory results as given in patent US9884040B2, “Desethylamiodarone for use in cancer treatment” (PÉCSI TUDOMÁNYEGYETEM, priority 2015, dated 2018).
# Tests used:
# BMI1 = experiment: Western blot of BMI1 expression in T24 cells; type: cell-based, human; conditions: T24 cells, 5, 10 and 15 μM, 24 h
# Description: (§1) 10^6 cells were seeded into regular plates and treated as for the cell viability assay. Cells were harvested at intervals in a chilled lysis buffer containing 0.5 mM sodium-metavanadate, 1 mM ethylenediaminetetraacetic acid (EDTA) and protease inhibitor cocktail in phosphate-buffered saline (PBS). Probes were boiled and subjected to 10% sodium dodecyl sulphate polyacrylamide gel electrophoresis then transferred to nitrocellulose membranes. The membranes were blocked in 5% low fat milk for 1.5 h at room temperature then exposed to primary antibodies at 4° C. overnight in blocking solution. Appropriate horseradish peroxidase-conjugated secondary antibodies were used at a 1:5000 dilution (anti-mouse and anti-rabbit IgGs; Sigma-Aldrich, Steinheim, Germany) and visualized by enhanced chemiluminescence (Amersham Biosciences, Piscataway, N.J., USA). All experiments were repeated 3 times.
# T24 cells were exposed to 5, 10 and 15 μM of DEA for 24 h intervals. Equal amounts of lysate protein were subjected to gel electrophoresis. GAPDH was used as loading control. Results are presented as representative immunoblots (top panel) and densitometric analysis of Western blots in bar diagrams (bottom graph). Data are expressed as the mean±1 SD, n=3 and presented as fold difference from control (medium). Significant difference from control: *p<0.05.
# [1] = tested on: MCF 7 breast cancer cells; experiment: Radiotherapy plus DEA, MTT viability, MCF 7; type: cell-based; conditions: 2Gy, 24, 48 and 72 hours, increasing DEA
# Description: (§2) The cells were seeded into 96-well plates at a starting density of 10^4 cells per well and cultured overnight before DEA was added to the medium for 24 h and 48 h. The medium was changed to a fresh one containing 0.5% of 3-[4,5-dimethylthiazol-2-yl]-2,5-diphenyl-tetrazolium bromide (MTT+) for an additional 3 hours, then the MTT+ reaction was terminated by adding HCl to 10 mM final concentration. The amount of blue formazan dye formed from MTT+ was proportional to the number of live cells, and was determined with an Anthos Labtech 2010 ELISA reader at 550 nm. All experiments were run in at least 4 replicates and repeated 3 times.
# MCF 7 cells were exposed to 2Gy irradiation for 24, 48 and 72 hours in presence or absence of increasing concentration of DEA. Viability of the cells was detected by the MTT method. Untreated cells served as controls.
# [2] = after administration of amiodarone; cited from earlier work
# [3] = tested on: MCF 7 breast cancer cell line; experiment: MTT cell viability assay, MCF 7; type: cell-based; conditions: increasing concentrations, 24, 48 and 72 hours
# Description: as §2
# MCF 7 cells were exposed to increasing concentrations of DEA for 24, 48 and 72 hours. Viability of the cells was detected by the MTT method. Untreated cells served as controls.
# [4] = tested on: T24 human bladder cancer cell line; experiment: Radiotherapy plus DEA, colony formation, T24; type: cell-based; conditions: 1Gy or 2Gy single dose alone or with 500 nM-3 μM DEA
# Description: (§3) Cells were trypsinized and plated in triplicate into 6-well plates at 500 cells/well. Cells were treated with different concentration of DEA and irradiated with a dose of 1.0 and 2.0 Grays. A telecobalt (Therathron 780 C) external irradiation equipment (average photon energy of 1.25 MeV) will be applied for irradiating cells. After 7 days of incubation, cells were washed and stained with Coomassie-blue, and the colonies containing more than 50 cells were counted. The number of colonies were determined and normalized to the number of colonies in controls.
# (§4) To examine the effects of a DEA on the effectiveness of radiotherapy the cells were treated with 1Gy or 2Gy single dose irradiation alone or combined with 500 nM-3 μM DEA.
# The cells were treated with 1Gy or 2Gy single dose irradiation alone or combined with 500 nM-3 μM DEA. Untreated cells served as controls. The results are mean±SEM of 3 independent experiments performed in at least quadruplicate. P<0.05 compared to the corresponding control group.
# [5] = tested on: DU-145 prostate cancer cell line; experiment: Cisplatin sensitivity of DU-145 cells with DEA (MTT); type: cell-based; conditions: increasing cisplatin, 48 hours, presence or absence of 10 μM DEA
# Description: as §2
# DU-145 cells were exposed to increasing concentrations of cisplatin 48 hours in presence or absence of 10 μM DEA. Viability of the cells was detected by the MTT method. Untreated cells served as controls.
# AKT (protein kinase B) = experiment: Western blot of Akt phosphorylation; type: cell-based, human; conditions: 5-10-15 μM, 6 hours; T24, B16F10 cell lines
# Description: as §1
# To determine the downstream consequences of DEA treatment, we examined the phosphorylation status of AKT (protein kinase B), GSK-3β and p42/44 mitogen-activated protein kinase (MAPK) (ERK1/2) by immunoblotting in T24 (human urinary bladder carcinoma), B16F10 (mice melanoma) cell lines. Cells were cultured in the presence of 5-10-15 μM DEA for 6 hours. The cells were prepared and western blot analysis was carried out to perform both phosphorylated and non-phosphorylated forms of the previously listed proteins. […]
# [6] = tested on: 4T1 (mouse mammary carcinoma) cells; experiment: Colony formation assay, 4T1; type: cell-based; conditions: one week following treatment
# From the text: Desethylamiodarone (DEA) is the main metabolite of the widely used anti-arrhythmic drug amiodarone. DEA also has antiarrhythmic activity in clinical relevant concentration. […] (27, 28, 29, 30) DEA accumulates rapidly in the lungs. […] Here, we checked whether Desethylamiodarone can affect invasion, migration of cancer cells. First of all, we initially checked whether desethylamiodarone has effect on the viability of T24 (human urinary bladder carcinoma), B16F10 (mice melanoma), 4T1 (mouse mammary carcinoma) cells using MTT assay. As shown in FIG. 1-3 Desethylamiodarone had significant cytotoxic activity in very low concentrations. To assess the recovery ability of cells that survived treatment, long-term (7 days) colony formation assay was performed.
# as §3, with “Dea.” for “DEA and irradiated with a dose of 1.0 and 2.0 Grays. A telecobalt (Therathron 780 C) external irradiation equipment (average photon energy of 1.25 MeV) will be applied for irradiating cells.”
# [7] = tested on: A549 human lung adenocarcinoma epithelial cell line; experiment: Radiotherapy plus DEA, colony formation, A549; type: cell-based; conditions: 1Gy or 2Gy single dose alone or with 500 nM-3 μM DEA
# Description: as §3, §4
# The cells were treated with 1Gy or 2Gy single dose irradiation alone or combined with 500 nM-3 μM DEA. Untreated cells served as controls. The results are mean±SEM of 3 independent experiments performed in at least quadruplicate. p<0.05 compared to the corresponding control group.
# [8] = cited from earlier work
# [9] = repetitive exposures; cited from earlier work
smiles,measurement,setting,value
"CCCCc1oc2ccccc2c1C(=O)c1cc(I)c(OCCNCC)c(I)c1 [DEA, (2-butyl-3-benzofuranyl)[4-[2-(ethylamino)ethoxy]-3,5-diiodophenyl]-methanone]",BMI1 expression,BMI1,significantly suppresses BMI1 expression
same,"Radiosensitization, viability of MCF 7 (MTT)",[1],sensitize MCF 7 breast cancer cells to irradiation
same,Concentration in the lungs,[2],can reach mM concentrations
same,Viability of MCF 7 cells (MTT),[3],induces cell death
same,"Radiosensitization, colony formation, T24",[4],sensitize bladder cancer to irradiation
same,Cisplatin sensitivity of DU-145 cells (MTT),[5],sensitizes DU-145 prostate cancer cells for cisplatin
same,Akt (Ser473) phosphorylation,AKT (protein kinase B),repressed Akt (Ser473) phosphorylation in a concentration-dependent manner
same,"Colony formation, 4T1",[6],significant decrease in the number and the size of colonies
same,"Radiosensitization, colony formation, A549",[7],sensitize lung cancer to irradiation
same,Concentration in patient plasma,[8]; after amiodarone in therapeutic doses,1700 to 4500 nM
same,Mean elimination half-life,[8]; in vivo,40 days
same,Drug accumulation in cell cultures,[9],always higher than that of AM
